# From US8802597B2, “Herbicidal pyrimidines” (E I du Pont de Nemours and Company, priority 2003, dated 2014)
# Columns and labels:
# Type in all cases: in vivo
# [1] = test system: Surinam grass (Brachiaria decumbens); assay: Test B pre/postemergence; settings: for Surinam Grass plant response rating: Postemergence; for Plant response rating, Surinam Grass: Preemergence
# Outline: (§1)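 Under greenhouse conditions, seeded pots and young plants (1- to 4-leaf, 2 to 18 cm) were treated at the same time with test chemicals in a non-phytotoxic solvent mixture containing surfactant. Response was assessed visually after 13 to 15 days, from 0 (no effect) to 100 (complete control).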
# [2] = test system: barnyardgrass (Echinochloa crus-galli); assay: Test B pre/postemergence; settings: for Barnyardgrass plant response rating: Postemergence; for Plant response rating, Barnyardgrass: Preemergence
# Outline: as §1
# [3] = test system: cocklebur (Xanthium strumarium); assay: Test B pre/postemergence; settings: for Cocklebur plant response rating: Postemergence; for Plant response rating, Cocklebur: Preemergence
# Outline: as §1
# corn (Zea mays) = assay: Test B pre/postemergence; settings: for Corn plant response rating: Postemergence; for Plant response rating, Corn: Preemergence
# Outline: as §1
# [4] = test system: crabgrass (Digitaria sanguinalis); assay: Test B pre/postemergence; settings: for Crabgrass plant response rating: Postemergence; for Plant response rating, Crabgrass: Preemergence
# Outline: as §1
# [5] = test system: giant foxtail (Setaria faberii); assay: Test B pre/postemergence; settings: for Foxtail, Giant plant response rating: Postemergence; for Plant response rating, Foxtail, Giant: Preemergence
# Outline: as §1
# [6] = test system: lambsquarters (Chenopodium album); assay: Test B pre/postemergence; settings: for Lambsquarters plant response rating: Postemergence; for Plant response rating, Lambsquarters: Preemergence
# Outline: as §1
# [7] = test system: morningglory (Ipomoea coccinea); assay: Test B pre/postemergence; settings: for Morningglory plant response rating: Postemergence; for Plant response rating, Morningglory: Preemergence
# Outline: as §1
# [8] = test system: pigweed (Amaranthus retroflexus); assay: Test B pre/postemergence; settings: for Pigweed plant response rating: Postemergence; for Plant response rating, Pigweed: Preemergence
# Outline: as §1
# [9] = test system: velvetleaf (Abutilon theophrasti); assay: Test B pre/postemergence; settings: for Velvetleaf plant response rating: Postemergence; for Plant response rating, Velvetleaf: Preemergence
# Outline: as §1
# [10] = test system: wheat (Triticum aestivum); assay: Test B pre/postemergence; settings: for Wheat plant response rating: Postemergence; for Plant response rating, Wheat: Preemergence
# Outline: as §1
# [11] = test system: blackgrass (Alopecurus myosuroides); assay: Test B postemergence; settings: scale 0 to 100 (0 no effect, 100 complete control)
# Outline: as §1
# wild oat (Avena fatua) = assay: Test B postemergence; settings: scale 0 to 100 (0 no effect, 100 complete control)
# Outline: as §1
# [12] = test system: barnyardgrass (Echinochloa crus-galli); assay: Test B flooded paddy test; settings: Flood, scale 0 to 100
# Outline: (§2)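 Visual injury scoring (0 = no effect, 100 = complete control) versus controls made 13 to 15 days after treatment in the greenhouse. Test species were grown in flooded paddy to the 2-leaf stage: rice, barnyardgrass, umbrella sedge, duck salad.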
# [13] = test system: duck salad (Heteranthera limosa); assay: Test B flooded paddy test; settings: Flood, scale 0 to 100
# Outline: as §2
# rice (Oryza sativa) = assay: Test B flooded paddy test; settings: Flood, scale 0 to 100
# Outline: as §2
# [14] = test system: umbrella sedge (Cyperus difformis); assay: Test B flooded paddy test; settings: Flood, scale 0 to 100
# Outline: as §2
# [15] = 62 g ai/ha, scale 0 to 100 (0 no effect, 100 complete control)
# [16] = 125 g ai/ha, scale 0 to 100 (0 no effect, 100 complete control)
# [17] = 62 g ai/ha, scale 0 to 100, 0 no effect, 100 complete control
smiles,measurement,setting,value
CCCCOC(=O)c1nc(C2CC2)nc(N)c1Cl [Compound 76],Surinam Grass plant response rating,[1]; [15],70
same,Surinam Grass plant response rating,[1]; [16],80
same,"Plant response rating, Surinam Grass",[1]; [17],70
same,"Plant response rating, Surinam Grass",[1]; [16],90
same,Barnyardgrass plant response rating,[2]; [15],90
same,Barnyardgrass plant response rating,[2]; [16],90
same,"Plant response rating, Barnyardgrass",[2]; [17],40
same,"Plant response rating, Barnyardgrass",[2]; [16],90
same,Cocklebur plant response rating,[3]; [15],60
same,Cocklebur plant response rating,[3]; [16],90
same,"Plant response rating, Cocklebur",[3]; [17],80
same,"Plant response rating, Cocklebur",[3]; [16],100
same,Corn plant response rating,corn (Zea mays); [15],50
same,Corn plant response rating,corn (Zea mays); [16],70
same,"Plant response rating, Corn",corn (Zea mays); [17],70
same,"Plant response rating, Corn",corn (Zea mays); [16],80
same,Crabgrass plant response rating,[4]; [15],70
same,Crabgrass plant response rating,[4]; [16],90
same,"Plant response rating, Crabgrass",[4]; [17],80
same,"Plant response rating, Crabgrass",[4]; [16],90
same,"Foxtail, Giant plant response rating",[5]; [15],60
same,"Foxtail, Giant plant response rating",[5]; [16],80
same,"Plant response rating, Foxtail, Giant",[5]; [17],40
same,"Plant response rating, Foxtail, Giant",[5]; [16],80
same,Lambsquarters plant response rating,[6]; [15],100
same,Lambsquarters plant response rating,[6]; [16],100
same,"Plant response rating, Lambsquarters",[6]; [17],90
same,"Plant response rating, Lambsquarters",[6]; [16],100
same,Morningglory plant response rating,[7]; [15],100
same,Morningglory plant response rating,[7]; [16],100
same,"Plant response rating, Morningglory",[7]; [17],100
same,"Plant response rating, Morningglory",[7]; [16],100
same,Pigweed plant response rating,[8]; [15],90
same,Pigweed plant response rating,[8]; [16],100
same,"Plant response rating, Pigweed",[8]; [17],100
same,"Plant response rating, Pigweed",[8]; [16],100
same,Velvetleaf plant response rating,[9]; [15],90
same,Velvetleaf plant response rating,[9]; [16],90
same,"Plant response rating, Velvetleaf",[9]; [17],80
same,"Plant response rating, Velvetleaf",[9]; [16],90
same,Wheat plant response rating,[10]; [15],60
same,Wheat plant response rating,[10]; [16],70
same,"Plant response rating, Wheat",[10]; [17],30
same,"Plant response rating, Wheat",[10]; [16],70
same,Blackgrass plant response rating,[11]; 62 g ai/ha,50
same,Blackgrass plant response rating,[11]; 125 g ai/ha,60
same,"Oat, Wild plant response rating",wild oat (Avena fatua); 62 g ai/ha,50
same,"Oat, Wild plant response rating",wild oat (Avena fatua); 125 g ai/ha,60
same,"Plant response rating, Barnyardgrass",[12]; 125 g ai/ha,0
same,"Plant response rating, Barnyardgrass",[12]; 500 g ai/ha,70
same,"Plant response rating, Ducksalad",[13]; 125 g ai/ha,0
same,"Plant response rating, Ducksalad",[13]; 500 g ai/ha,70
same,"Plant response rating, Rice",rice (Oryza sativa); 125 g ai/ha,0
same,"Plant response rating, Rice",rice (Oryza sativa); 500 g ai/ha,50
same,"Plant response rating, Sedge, Umbrella",[14]; 125 g ai/ha,30
same,"Plant response rating, Sedge, Umbrella",[14]; 500 g ai/ha,70
